Assay results taken from the NIST ThermoML archive (doi:10.1021/je1005533).

Assay: refractive index (other wavelength) (dimensionless); xn = mol fraction of the nth substance listed
Settings: 101.3 kPa, Liquid, Wavelength=632.8 nm, Standard Abbe refractometry

CCCCCCCCCCCCCCCC [hexadecane] + COC(=O)OC
Settings	refractive index
308.19 K, x2 = 0.132	1.4228
308.21 K, x2 = 0	1.427
308.29 K, x2 = 0.397	1.4128
308.35 K, x2 = 0.219	1.4197
308.4 K, x2 = 0.291	1.417
309.24 K, x2 = 0	1.4265
309.25 K, x2 = 0.132	1.4224
309.32 K, x2 = 0.397	1.4123
309.54 K, x2 = 0.291	1.4164
309.66 K, x2 = 0.219	1.4191
310.21 K, x2 = 0	1.4261
310.33 K, x2 = 0.132	1.4219
310.38 K, x2 = 0.397	1.4118
310.83 K, x2 = 0.291	1.4158
311.09 K, x2 = 0.219	1.4185
311.24 K, x2 = 0	1.4256
311.39 K, x2 = 0.132	1.4214
311.42 K, x2 = 0.397	1.4113
312.09 K, x2 = 0.291	1.4153
312.18 K, x2 = 0.6	1.4005
312.2 K, x2 = 0.517	1.4052
312.3 K, x2 = 0	1.4252
312.43 K, x2 = 0.132	1.421
312.46 K, x2 = 0.397	1.4108
312.54 K, x2 = 0.219	1.4179
313.16 K, x2 = 0.517	1.4048
313.32 K, x2 = 0.6	1.3999
313.33 K, x2 = 0.291	1.4147
313.34 K, x2 = 0	1.4248
313.51 K, x2 = 0.132	1.4206
313.53 K, x2 = 0.397	1.4104
313.95 K, x2 = 0.219	1.4173
314.26 K, x2 = 0.517	1.4043
314.44 K, x2 = 0	1.4244
314.44 K, x2 = 0.6	1.3994
314.55 K, x2 = 0.132	1.4201
314.62 K, x2 = 0.397	1.41
314.63 K, x2 = 0.291	1.4142
315.34 K, x2 = 0.517	1.4038
315.5 K, x2 = 0.6	1.3989
315.54 K, x2 = 0	1.4239
315.57 K, x2 = 0.132	1.4197
315.59 K, x2 = 0.219	1.4166
315.71 K, x2 = 0.397	1.4094
315.92 K, x2 = 0.291	1.4136
316.19 K, x2 = 0.689	1.3925
316.42 K, x2 = 0.517	1.4033
316.45 K, x2 = 0.804	1.3827
316.55 K, x2 = 0	1.4235
316.56 K, x2 = 0.6	1.3984
316.64 K, x2 = 0.132	1.4192
316.73 K, x2 = 0.397	1.409
316.86 K, x2 = 0.872	1.3751
317.02 K, x2 = 0.689	1.3921
317.08 K, x2 = 0.219	1.416
317.2 K, x2 = 0.291	1.4131
317.25 K, x2 = 0.804	1.3823
317.51 K, x2 = 0.517	1.4028
317.56 K, x2 = 0	1.4231
317.67 K, x2 = 0.132	1.4188
317.67 K, x2 = 0.6	1.3979
317.74 K, x2 = 0.872	1.3747
317.81 K, x2 = 0.397	1.4085
317.89 K, x2 = 0.689	1.3917
318.06 K, x2 = 0.804	1.3819
318.49 K, x2 = 0.291	1.4125
318.5 K, x2 = 0.219	1.4154
318.55 K, x2 = 0.872	1.3743
318.61 K, x2 = 0	1.4226
318.74 K, x2 = 0.132	1.4183
318.84 K, x2 = 0.689	1.3913
318.89 K, x2 = 0.397	1.408
318.91 K, x2 = 0.804	1.3815
319.4 K, x2 = 0.872	1.3739
319.74 K, x2 = 0.689	1.3909
319.79 K, x2 = 0.804	1.381
320.28 K, x2 = 0.872	1.3735
320.64 K, x2 = 0.804	1.3806
